According to patent publication US20150352164A1, “COMPOSITION COMPRISING THEANINE AND AN EXTRACT OF INULA RACEMOSA” (CONOPCO, INC., D/B/A UNILEVER, priority 2012, published 2015):

Tested on: 3T3L1 (mouse preadipocytes), differentiated to mature adipocytes; adiponectin secretion
Assay: Adiponectin assay: adiponectin secretion from differentiated 3T3L1 adipocytes, ELISA of supernatants
Type: cell-based
Conditions: for % of adiponectin (control cells taken as hundred): 48 hrs
Protocol: Adiponectin Assay Protocol • 3T3L1 (mouse preadipocytes) were plated on a 96 well plate at a density of 3*10^3 cells per well; • After 5 days of post confluency (a condition where the cells form a uniform layer) the cells were differentiated (a process where premature adipocytes are transformed to mature adipocytes) in differentiation medium for 10 days; • On the 11th day the matured adipocytes were treated with non cytotoxic concentrations (concentrations stated below) of the inula racemosa extract and theanine; • The cells were incubated for 48 hrs and supernatants were collected and stored. They were analysed to detect level of Adiponectin by ELISA; • The efficacy of the test ingredient was evaluated with respect to the untreated control (media control); • If any of the tested combinations of inula racemosa extract and theanine on increased adiponectin level was larger in a statistically significant way than the additive effect or individual components, then the particular combination is considered to be synergistic. To investigate the efficacy of inula racemosa and theanine in increasing adiponectin secretion from 3T3L1, the cells were treated with varying concentrations of inula racemosa (as obtained set out herein in the Materials section) and theanine in cell culture medium. The % of adiponectin from control cells were taken as hundred, upon which the treatment values were calculated. […] A range of combination varying amounts of inula racemosa extract and theanine were investigated on its joint ability for adiponectin secretion. The combinations used were (weight ratio's theanine:inula racemosa extract): 100:1 ([…]), 100:10,000 (H). This was achieved via dissolution of the components in aqueous stock solutions.

## CCNC(=O)CCC(N)C(=O)O (stereo not shown) [Theanine, 2-Amino-4-(ethylcarbamoyl)butyric acid]
0.00001% wt of inula r. extract or theanine in cell culture medium
  % of adiponectin (control cells taken as hundred): 106.7 +/− 7.4%
0.00002% wt of inula r. extract or theanine in cell culture medium
  % of adiponectin (control cells taken as hundred): 107.0 +/− 7.0%
0.00005% wt of inula r. extract or theanine in cell culture medium
  % of adiponectin (control cells taken as hundred): 136.7 +/− 7.3%
0.0001% wt of inula r. extract or theanine in cell culture medium
  % of adiponectin (control cells taken as hundred): 141.7 +/− 1.6%
0.0005% wt of inula r. extract or theanine in cell culture medium
  % of adiponectin (control cells taken as hundred): 145.8 +/− 8.2%
0.001% wt of inula r. extract or theanine in cell culture medium
  % of adiponectin (control cells taken as hundred): 156.0 +/− 8.5%
Varying concentrations, 3T3L1 cells
  adiponectin levels, in-vitro, separately: increased adiponectin levels
